Legend:
Tyrosinase [1] = target: T1, Tyrosinase (Agaricus bisporus, UniProt O42713)
T1 sequence (O42713 whole entry): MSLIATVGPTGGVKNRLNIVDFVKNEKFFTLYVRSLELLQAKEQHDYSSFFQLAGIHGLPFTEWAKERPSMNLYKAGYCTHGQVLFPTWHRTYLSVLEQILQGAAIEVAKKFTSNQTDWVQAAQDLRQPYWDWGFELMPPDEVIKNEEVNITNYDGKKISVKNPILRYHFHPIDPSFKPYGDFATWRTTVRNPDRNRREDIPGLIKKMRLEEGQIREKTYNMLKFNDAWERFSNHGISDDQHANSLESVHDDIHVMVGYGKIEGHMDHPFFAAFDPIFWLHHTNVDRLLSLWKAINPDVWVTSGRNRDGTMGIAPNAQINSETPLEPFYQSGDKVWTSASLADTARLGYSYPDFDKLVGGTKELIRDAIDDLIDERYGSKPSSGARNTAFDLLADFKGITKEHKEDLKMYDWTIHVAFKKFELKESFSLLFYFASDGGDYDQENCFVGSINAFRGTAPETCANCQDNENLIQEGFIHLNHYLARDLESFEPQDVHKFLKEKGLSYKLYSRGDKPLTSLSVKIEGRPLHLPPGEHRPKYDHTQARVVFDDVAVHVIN
Description: (§1) Inhibition of monophenolase activity of mushroom tyrosinase using L-tyrosine as substrate preincubated with substrate for 10 mins followed by protein addition measured after 15 mins by spectrophotometric analysis

[2] = target: T2, Tyrosinase (Agaricus bisporus) (UniProt O42713)
T2 sequence (whole entry): T1 sequence (O42713 whole entry)
Description: (§2) Inhibition of diphenolase activity of mushroom tyrosinase using L-DOPA as substrate preincubated with substrate for 10 mins followed by protein addition measured after 15 mins by spectrophotometric analysis

Tyrosinase [3] = target: T1, Tyrosinase; remark: listed apart in the source
Description: as §2

Tyrosinase [4] = target: T1, Tyrosinase; remark: listed apart in the source
Tyrosinase [5] = target: T1, Tyrosinase; remark: listed apart in the source
Description: Competitive inhibition of diphenolase activity of mushroom tyrosinase using L-DOPA as substrate preincubated for 5 to 60 mins by Lineweaver-Burk and Dixon plot analysis

[6] = target: T2, Tyrosinase (Agaricus bisporus); remark: listed apart in the source
Description: as §1

in vitro = settings: mouse, B16 cells
Description: Cytotoxicity against mouse B16 cells assessed as cell viability after 72 hrs by MTT assay

B16 [7] = assay: cells; settings: Mus musculus, B16, 72 h
Description: Inhibition of alpha-MSH-stimulated melanin production in mouse B16 cells after 72 hrs by microplate reader analysis

Tyrosinase [8] = target: T1, Tyrosinase; assay: Time dependent inhibition of monophenolase activity of mushroom tyrosinase using L-tyrosine as substrate measured every 30 secs by Morrison and Walsh plot analysis; settings: read-out: Ki(app)
B16 [9] = assay: Potency index, ratio of kojic acid IC50 to compound IC50 for alpha-MSH-stimulated melanin production in mouse B16 cells; assay type: functional

IC50 (Tyrosinase [1]) [µM] | IC50 (Tyrosinase [3]) [µM] | Structure (SMILES) | inhibition [2] | Ki (Tyrosinase [4]) [µM] | Ki (Tyrosinase [5]) [µM] | inhibition [6] | CC50 at 72 h (in vitro) [µM] | IC50 (B16 [7]) [µM] | Ki (Tyrosinase [8]) [µM] | Ratio IC50 (B16 [9])
18.4 | 144 | CC(C)=CCC/C(C)=C/Cc1c(O)ccc(C2(O)COc3cc(O)cc(O)c3C2=O)c1O (stereo unspecified) | Dose-dependent effect | 7.5 | 81.4 | Dose-dependent effect | – | – | – | –
> 200 | > 200 | COc1c(C2COc3cc(O)c(CC=C(C)C)c(O)c3C2=O)ccc(O)c1CC=C(C)C (stereo unspecified) | – | – | – | – | – | – | – | –
> 200 | > 200 | C/C(=C\Cc1ccc(-c2coc3cc(O)cc(O)c3c2=O)cc1O)CCCC(C)(C)O | – | – | – | – | – | – | – | –
> 200 | 146 | COc1cc(O)ccc1C1COc2cc3c(c(O)c2C1=O)C=CC(C)(C)O3 (stereo unspecified) | – | – | 56.7 | – | – | – | – | –
> 200 | > 200 | CC(C)=CCC/C(C)=C/Cc1cc(-c2coc3cc(O)cc(O)c3c2=O)ccc1O | – | – | – | – | – | – | – | –
> 200 | > 200 | COc1cc(C2COc3cc4c(c(OC)c3C2)C=CC(C)(C)O4)c(O)cc1O (stereo unspecified) | – | – | – | – | – | – | – | –
92 | > 200 | CC(C)=CCC/C(C)=C/Cc1c(O)ccc(-c2coc3cc(O)cc(O)c3c2=O)c1O | Dose-dependent effect | 49.7 | – | Dose-dependent effect | – | – | – | –
> 200 | > 200 | CC(C)=CCCCC1(C)C=Cc2cc(-c3coc4cc(O)cc(O)c4c3=O)ccc2O1 (stereo unspecified) | – | – | – | – | – | – | – | –
> 200 | > 200 | CC(C)=CCC/C(C)=C/COc1ccc(-c2coc3cc(O)cc(O)c3c2=O)cc1O | – | – | – | – | – | – | – | –
> 200 | > 200 | CC(C)=CCC/C(C)=C/Cc1cc(C2Oc3cc(O)c(C)c(O)c3C(=O)C2=O)ccc1O (stereo unspecified) | – | – | – | – | – | – | – | –
> 200 | > 200 | CC(C)=CCC/C(C)=C/Cc1cc(C2CC(=O)c3c(cc(O)c(C)c3O)O2)ccc1O (stereo unspecified) | – | – | – | – | – | – | – | –
> 200 | > 200 | CC(C)=CCc1c(O)ccc(C2COc3cc(O)c(CC=C(C)C)c(O)c3C2=O)c1O (stereo unspecified) | – | – | – | – | – | – | – | –

Structure (SMILES) | IC50 (Tyrosinase [1]) [µM] | IC50 (Tyrosinase [3]) [µM] | inhibition [2] | Ki (Tyrosinase [4]) [µM] | Ki (Tyrosinase [5]) [µM] | inhibition [6] | CC50 at 72 h (in vitro) [µM] | IC50 (B16 [7]) [µM] | Ki (Tyrosinase [8]) [µM] | Ratio IC50 (B16 [9])
CC(C)=CCC/C(C)=C/Cc1c(O)ccc(C2COc3cc(O)cc(O)c3C2=O)c1O (stereo unspecified) | 2.9 | 128 | Dose-dependent effect | 1.8 | 76.4 | Dose-dependent effect | 241 | 42.3 | 0.151 | –
COc1c2c(cc3c1C[C@H](c1ccc(O)cc1O)CO3)OC(C)(C)C=C2 | 0.03 | 0.5 | Dose-dependent effect | 0.019 | 0.13 | Dose-dependent effect | 104 | 13 | 0.00148 | 200

— ChEMBL document CHEMBL3745622 (Bioorg Med Chem, 2016)
